Reference: US7402587B2, “Crystalline forms of a pyridinyl-sulfonamide and their use as endothelin receptor antagonists” (Speedel Pharma AG, priority 2004, dated 2008)
Values belong to the compound of their own block, whether it stands above or below them.

Tests used:
Type in all cases: physicochemical
[1] = Light sensitivity of solutions and suspensions; conditions: in particular above ambient temperature
[2] = Hygroscopicity: water adsorption when stored under humid conditions; conditions: hygroscopic, water released between 50° C. and 200° C. when heated at 10° C./minute
Description: Polymorph form A is a solid powder with a particle size in the range from 1 to 500 μm, preferably 5 to 300 μm, and more preferably 5 to 200 μm. The polymorph A is hygroscopic and adsorbs water to a content of about 5 percent by weight (when stored under humid conditions), which is continuously released between 50° C. and 200° C., when heated at a rate of 10° C./minute. The polymorph A is especially suitable as an intermediate and starting material to produce stable polymorph forms.

[3] = Thermodynamic stability of the crystalline forms (own investigations); conditions: compared with the other crystalline forms
Text: Own investigations have shown that there exist two distinct crystalline forms, hereinafter referred to as form A and form B, as well as a number of further solvates, in particular the methanol, ethanol, isopropanol, dichloromethane, acetone, methyl ethyl ketone and tetrahydrofuran solvates.

- sensitivity to light [1]: sensitive to light
Compound: COc1ccccc1Oc1c(NS(=O)(=O)c2ccc(C)cn2)nc(-c2ccncc2)nc1OC [SPP301, 5-methyl-pyridine-2-sulfonic acid [6-methoxy-5-(2-methoxy-phenoxy)-2-pyridin-4-yl-pyrimidin-4-yl]-amide]

- adsorbs water to a content of [2]: about 5 percent by weight
Compound: COc1ccccc1Oc1c(NS(=O)(=O)c2ccc(C)cn2)nc(-c2ccncc2)nc1OC [form A, 5-methyl-pyridine-2-sulfonic acid [6-methoxy-5-(2-methoxy-phenoxy)-2-pyridin-4-yl-pyrimidin-4-yl]-amide]

- thermodynamic stability of crystalline form [3]: thermodynamically stable
Compound: COc1ccccc1Oc1c(NS(=O)(=O)c2ccc(C)cn2)nc(-c2ccncc2)nc1OC [form B, 5-methyl-pyridine-2-sulfonic acid [6-methoxy-5-(2-methoxy-phenoxy)-2-pyridin-4-yl-pyrimidin-4-yl]-amide]
